This experiment deals with T1, human mAChR M1 (Homo sapiens, UniProt P11229).
T1 sequence (P11229 1-460): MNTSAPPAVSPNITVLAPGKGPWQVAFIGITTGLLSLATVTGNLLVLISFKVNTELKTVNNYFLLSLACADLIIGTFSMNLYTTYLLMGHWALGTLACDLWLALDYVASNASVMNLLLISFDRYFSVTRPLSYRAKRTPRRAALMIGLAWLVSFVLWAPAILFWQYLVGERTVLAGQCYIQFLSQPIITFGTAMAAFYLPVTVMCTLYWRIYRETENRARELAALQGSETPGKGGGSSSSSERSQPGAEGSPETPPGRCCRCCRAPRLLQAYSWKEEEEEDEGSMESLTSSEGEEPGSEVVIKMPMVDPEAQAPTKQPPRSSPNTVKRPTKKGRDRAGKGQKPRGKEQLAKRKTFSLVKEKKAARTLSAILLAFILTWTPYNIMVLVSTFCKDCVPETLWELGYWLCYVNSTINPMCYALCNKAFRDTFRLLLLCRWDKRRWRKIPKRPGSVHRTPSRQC
In words: mAChR M1 cell-based functional assay: calcium mobilization, positive allosteric modulator mode (increase in EC20 acetylcholine response). The settings on record: for EC50: read-out: Human M1 EC50; for Emax: read-out: Human M1 Emax (%). The method in brief:
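PAM potency reflects the concentration-dependent increase in calcium response to an EC20 acetylcholine challenge, given 144 s into a 300 s read after compound addition at 4 s (EC80 follows at 230 s). Cells were hM1-expressing CHO-K1, loaded 50 min with Fluo-4 AM. Curves used 11 points at 1:3 dilutions and four-parameter logistic fitting.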
For orientation: Calcium flux is commonly read through the fluorescence of an indicator in the cells.

Read-outs that look alike come from different tables or passages of the source.

In general, EC50 refers to the midpoint of the concentration-response curve. One may read the Emax as the size of the effect at its maximum, as opposed to the concentration needed. With `Cc1ccc(Cc2cc(C(=O)NC3(C#N)CC3)nc3ccsc23)cn1` [Compound 257, N-(1-cyanocyclopropyl)-7-[(6-methyl-3-pyridyl)methyl]thieno[3,2-b]pyridine-5-carboxamide], for the setting “Table 2, human M1”, the EC50 was greater than 10000 nM and the Emax turned out to be 26.4%.
The corresponding values for `Cc1nc(-c2ccc(Cc3cc(C(=O)NC4COC4)nc4ccsc34)cc2)co1` [Compound 147, 7-[[4-(2-methyloxazol-4-yl)phenyl]methyl]-N-(oxetan-3-yl)thieno[3,2-b]pyridine-5-carboxamide] are greater than 10000 nM and 34%.
In the case of `O=C(NCC1CCOC1)c1cc(Cc2ccc(-c3cncs3)cc2)c2sccc2n1` (centres unmarked) [Compound 396, N-(tetrahydrofuran-3-ylmethyl)-7-[(4-thiazol-5-ylphenyl)methyl]thieno[3,2-b]pyridine-5-carboxamide], where the note is “Table 2, human M1”, the EC50 came out at 1060 nM and the Emax was 63%.
The corresponding values for `Cc1nc(-c2ccc(Cc3cc(C(=O)NC4CN(C(C)(C)C)C4)nc4ccsc34)cc2)cs1` [Compound 179, N-(1-tert-butylazetidin-3-yl)-7-[[4-(2-methylthiazol-4-yl)phenyl]methyl]thieno[3,2-b]pyridine-5-carboxamide] are 3800 nM and 65.2%.
In the case of `O=C1CC(NC(=O)c2cc(Cc3ccc(-n4cccn4)cc3)c3sccc3n2)CN1` (centres unmarked) [Compound 441, N-(5-oxopyrrolidin-3-yl)-7-[(4-pyrazol-1-ylphenyl)methyl]thieno[3,2-b]pyridine-5-carboxamide], under “Table 2, human M1”, the EC50 was 1480 nM and the maximal effect (Emax) was determined as 63.7%.
The matching figures for `Cn1cc(-c2ccc(Cc3cc(C(=O)N[C@H]4CCOC4)nc4ccsc34)cn2)cn1` [Compound 343, 7-[[6-(1-methylpyrazol-4-yl)-3-pyridyl]methyl]-N-[(3S)-tetrahydrofuran-3-yl]thieno[3,2-b]pyridine-5-carboxamide]: 975 nM and 80.8%.
The corresponding values for `Cc1nc(-c2ccc(Cc3cc(C(=O)NC4CCCN(C)C4)nc4ccsc34)cc2)cs1` (centres unmarked) [Compound 186, N-(1-methyl-3-piperidyl)-7-[[4-(2-methylthiazol-4-yl)phenyl]methyl]thieno[3,2-b]pyridine-5-carboxamide] are 3290 nM and 74.2%.
The matching figures for `O=C(NC1CCOCC1)c1cc(Cc2ccc(-c3cncs3)cc2)c2sccc2n1` [Compound 394, N-tetrahydropyran-4-yl-7-[(4-thiazol-5-ylphenyl)methyl]thieno[3,2-b]pyridine-5-carboxamide]: 233 nM and 65.5%.
Take `CN(C(=O)c1cc(Cc2ccc(-c3cscn3)cc2)c2sccc2n1)C1CCOCC1` [Compound 214, N-methyl-N-tetrahydropyran-4-yl-7-[(4-thiazol-4-ylphenyl)methyl]thieno[3,2-b]pyridine-5-carboxamide]: under “Table 2, human M1”, the EC50 was found to be 5950 nM and the Emax worked out at 81.1%.
As for `O=C(NCC1CCOCC1)c1cc(Cc2ccc(-c3cncs3)cc2)c2sccc2n1` [Compound 387, N-(tetrahydropyran-4-ylmethyl)-7-[(4-thiazol-5-ylphenyl)methyl]thieno[3,2-b]pyridine-5-carboxamide], where the note is “Table 2, human M1”, the EC50 was determined as 583 nM and the Emax was determined as 69.5%.
The matching figures for `Cn1cc(-c2cc(F)c(Cc3cc(C(=O)N[C@H]4COCC[C@@H]4O)nc4ccsc34)c(F)c2)cn1` [Compound 60, 7-[[2,6-difluoro-4-(1-methylpyrazol-4-yl)phenyl]methyl]-N-[(3S,4S)-4-hydroxytetrahydropyran-3-yl]thieno[3,2-b]pyridine-5-carboxamide]: 5600 nM and 71.6%.
The corresponding values for `Cn1cc(-c2ccc(Cc3cc(C(=O)NCC4CCN4)nc4ccsc34)cn2)cn1` (centres unmarked) [Compound 360, N-(azetidin-2-ylmethyl)-7-[[6-(1-methylpyrazol-4-yl)-3-pyridyl]methyl]thieno[3,2-b]pyridine-5-carboxamide] are 38.5 nM and 88.1%.
For `Cc1nc(-c2ccc(Cc3cc(C(=O)NC4CCN(C)CC4)nc4ccsc34)cc2)co1` [Compound 164, 7-[[4-(2-methyloxazol-4-yl)phenyl]methyl]-N-(1-methyl-4-piperidyl)thieno[3,2-b]pyridine-5-carboxamide], under “Table 2, human M1”, the EC50 came out at 2550 nM and the Emax came out at 74.6%.
The matching figures for `Cn1cc(-c2ccc(Cc3cc(C(=O)NC4CCCOC4)nc4ccsc34)cc2)nn1` (centres unmarked) [Compound 152, 7-[[4-(1-methyltriazol-4-yl)phenyl]methyl]-N-tetrahydropyran-3-yl-thieno[3,2-b]pyridine-5-carboxamide]: 272 nM and 92.3%.
`COCC(C)NC(=O)c1cc(Cc2ccc(-c3cnn(C)c3)nc2)c2sccc2n1` (centres unmarked) [Compound 363, N-(2-methoxy-1-methyl-ethyl)-7-[[6-(1-methylpyrazol-4-yl)-3-pyridyl]methyl]thieno[3,2-b]pyridine-5-carboxamide]: under “Table 2, human M1”, the EC50 came out at 321 nM and the Emax came out at 85.2%.
The corresponding values for `CC1(O)CCN(C(=O)c2cc(Cc3ccc(-n4cccn4)cc3)c3sccc3n2)CC1` [Compound 82, (4-hydroxy-4-methyl-1-piperidyl)-[7-[(4-pyrazol-1-ylphenyl)methyl]thieno[3,2-b]pyridin-5-yl]methanone] are greater than 10000 nM and 70.4%.
The corresponding values for `Cc1nc(-c2ccc(Cc3cc(C(=O)NC4CCCN(C)C4)nc4ccsc34)cc2)co1` (centres unmarked) [Compound 163, 7-[[4-(2-methyloxazol-4-yl)phenyl]methyl]-N-(1-methyl-3-piperidyl)thieno[3,2-b]pyridine-5-carboxamide] are 2530 nM and 75.4%.
As to `Cn1ccc2nc(C(=O)NC3CCOCC3)cc(Cc3ccc(-c4cscn4)cc3)c21` [Compound 451, 1-methyl-N-tetrahydropyran-4-yl-7-[(4-thiazol-4-ylphenyl)methyl]pyrrolo[3,2-b]pyridine-5-carboxamide], where the note is “Table 2, human M1”, the half-maximal effective concentration (EC50) came out at 184 nM and the Emax was found to be 71.7%.
On to `Cn1ccc2nc(C(=O)NC3CCOCC3(C)C)cc(Cc3ccc(-c4nccs4)cc3)c21` (centres unmarked) [Compound 485, N-(3,3-dimethyltetrahydropyran-4-yl)-1-methyl-7-[(4-thiazol-2-ylphenyl)methyl]pyrrolo[3,2-b]pyridine-5-carboxamide], for which the Emax came out at 61.6%. The EC50 (Table 2, human M1) turned out to be 662 nM.
For the compound `Cn1ccc2nc(C(=O)N[C@H]3CCC[C@@H]3O)cc(Cc3ccc(-c4nccs4)cc3)c21` [Compound 483, N-[(1S,2S)-2-hydroxycyclopentyl]-1-methyl-7-[(4-thiazol-2-ylphenyl)methyl]pyrrolo[3,2-b]pyridine-5-carboxamide], under “Table 2, human M1”, the EC50 was found to be 65 nM and the Emax is 58.6%.
Turning to `O=C(NC1CCCNC1=O)c1cc(Cc2ccc(-n3cccn3)cc2)c2sccc2n1` (centres unmarked) [Compound 78, N-(2-oxo-3-piperidyl)-7-[(4-pyrazol-1-ylphenyl)methyl]thieno[3,2-b]pyridine-5-carboxamide], under “Table 2, human M1”, the EC50 stood at 310 nM and the Emax turned out to be 87.2%.
The matching figures for `Cc1nn(C)c(C)c1-c1ccc(Cc2cc(C(=O)N[C@@H]3CC[C@H]3O)nc3ccsc23)cc1` [Compound 240, N-[(1R,2R)-2-hydroxycyclobutyl]-7-[[4-(1,3,5-trimethylpyrazol-4-yl)phenyl]methyl]thieno[3,2-b]pyridine-5-carboxamide]: greater than 10000 nM and 19.9%.
